# Test: Inhibition of human TRKA expressed in human TF1 cells by CellTiter-Glo Luminescent assay
row,SMILES,IC50
1,COCC[C@@H]1C[C@@H](NC(=O)Nc2c(C)c(-c3cnn(C)c3)nn2-c2ccccc2)[C@H](c2cnc(Cl)c(F)c2)N1,< 100000 pM
2,COCC[C@@H]1C[C@@H](NC(=O)Nc2c(C)c(-c3cnc4c(c3)c(N=S(C)(C)=O)nn4C)nn2-c2ccccc2)[C@H](c2ccc(F)c(F)c2)N1,< 100000 pM
3,COCC[C@@H]1C[C@@H](NC(=O)Nc2c(C)c(-c3cnn(C)c3)nn2-c2ccccc2)[C@@H]2c3ccccc3C(F)(F)CN12,640 pM

# Continued by falling IC50, values first:
row,IC50,SMILES
1,640 pM,Cc1c(OCC2CCN(C)CC2)nn(-c2ccccc2)c1NC(=O)N[C@H]1CN(CC(F)(F)F)[C@@H]2COc3ccccc3[C@H]12
2,590 pM,COCCN1C[C@@H](NC(=O)Nc2c(C)c(-c3cnn(C)c3)nn2-c2ccccc2)[C@@H]2c3ccccc3CC[C@H]21

# Source: BindingDB's records for doi:10.1016/j.ejmech.2019.04.053 (China Pharmaceutical University, 2019)
